# Reference: patent publication US10238661B2, “Fused, spirocyclic heteroaromatic compounds for the treatment of bacterial infections” (priority 2014, dated 2019)
# Values joined by “and” are separate entries in the source; they are usually repeats but may differ in a detail not shown here. Identical values can stand only once. Like-named read-outs stand apart in the source and are kept apart here.
# Assays:
# Mycoplasma genitalium = assay: microbe, parasite or virus in culture; format: cell-based; details: for MIC: Mycoplasmoides genitalium
# Ureaplasma species [1] = assay: microbe, parasite or virus in culture; format: cell-based, Ureaplasma urealyticum, Ureaplasma parvum; details: for MIC50 / MIC90 / MIC: Ureaplasma; for MIC: ATCC33175
# Ureaplasma species [2] = details: Ureaplasma urealyticum ATCC 33175; CLSI M43-A acceptable QC range; cited from earlier work
# Mycoplasma hominis = assay: microbe, parasite or virus in culture; format: cell-based
# Mycoplasma pneumoniae = assay: Broth microdilution MIC assay (CLSI M43-A), M. pneumoniae; format: cell-based; details: for MIC50 / MIC90 / MIC Range: M. pneumoniae isolates, n = 12
# Bacillus anthracis = assay: microbe, parasite or virus in culture; format: cell-based
# Francisella tularensis = assay: microbe, parasite or virus in culture; format: cell-based
# Brucella melitensis = assay: microbe, parasite or virus in culture; format: cell-based
# Burkholderia mallei = assay: microbe, parasite or virus in culture; format: cell-based; details: Burkholderia mallei
# Brucella suis = assay: microbe, parasite or virus in culture; format: cell-based
# [3] = tested on: Burkholderia pseudomallei; assay: microbe, parasite or virus in culture; format: cell-based
# Yersinia pestis = assay: microbe, parasite or virus in culture; format: cell-based
# [4] = M. pneumoniae M-129 QC Strain ATCC 29342-B7, read-out: MIC
# [5] = M. pneumoniae isolate 51494, read-out: MIC
# [6] = M. pneumoniae isolate 53706, read-out: MIC
# [7] = M. pneumoniae isolate 53938, read-out: MIC
# [8] = M. pneumoniae isolate 54484, macrolide-resistant, read-out: MIC
# [9] = M. pneumoniae isolate 54506, macrolide-resistant, read-out: MIC
# [10] = M. pneumoniae isolate 55246, read-out: MIC
# [11] = M. pneumoniae isolate 55612, read-out: MIC
# [12] = M. pneumoniae isolate 57807, read-out: MIC
# [13] = M. pneumoniae isolate 58188, read-out: MIC
# [14] = M. pneumoniae isolate 58772, read-out: MIC
# [15] = M. pneumoniae isolate 59597, read-out: MIC
# [16] = M. pneumoniae isolate 59598, read-out: MIC
compound,measurement,setting,value
CC[C@H]1OC(=O)[C@H](C)[C@@H](O[C@H]2C[C@@](C)(OC)[C@@H](O)[C@H](C)O2)[C@H](C)[C@@H](O[C@@H]2O[C@H](C)C[C@H](N(C)C)[C@H]2O)[C@](C)(O)C[C@@H](C)CN(C)[C@H](C)[C@@H](O)[C@]1(C)O [Azithromycin],MIC Range,Mycoplasma genitalium,<0.001 µg/mL
same,MIC,Mycoplasma genitalium,< 0.001 µg/mL
same,MIC,Mycoplasma genitalium; ATCC33530,< 0.001 µg/mL
same,MIC,Mycoplasma genitalium; ATCC49895,< 0.001 µg/mL
same,MIC,Mycoplasma genitalium; ATCC49899,< 0.001 µg/mL
same,MIC Range,Ureaplasma species [1],1 to 32 µg/mL
same,MIC50,Ureaplasma species [1],2 µg/mL
same,MIC90,Ureaplasma species [1],4 µg/mL
same,MIC,Ureaplasma species [1],2 µg/mL
same,MIC Limits for Quality Control Strain,Ureaplasma species [2],0.5 to 8 µg/mL
same,MIC Range,Mycoplasma hominis,1 to 8 µg/mL
same,MIC50,Mycoplasma hominis; Metamycoplasma hominis,4 µg/mL
same,MIC90,Mycoplasma hominis; Metamycoplasma hominis,4 µg/mL
same,MIC,Mycoplasma pneumoniae; [4],< 0.001 µg/mL
same,MIC,Mycoplasma pneumoniae; [5],< 0.001 µg/mL
same,MIC,Mycoplasma pneumoniae; [6],< 0.001 µg/mL
same,MIC,Mycoplasma pneumoniae; [7],< 0.001 µg/mL
same,MIC,Mycoplasma pneumoniae; [8],32 µg/mL
same,MIC,Mycoplasma pneumoniae; [9],16 µg/mL
same,MIC,Mycoplasma pneumoniae; [10],< 0.001 µg/mL
same,MIC,Mycoplasma pneumoniae; [11],< 0.001 µg/mL
same,MIC,Mycoplasma pneumoniae; [12],< 0.001 µg/mL
same,MIC,Mycoplasma pneumoniae; [13],< 0.001 µg/mL
same,MIC,Mycoplasma pneumoniae; [14],< 0.001 µg/mL
same,MIC,Mycoplasma pneumoniae; [15],< 0.001 µg/mL
same,MIC,Mycoplasma pneumoniae; [16],< 0.001 µg/mL
same,MIC50,Mycoplasma pneumoniae,< 0.001 µg/mL
same,MIC90,Mycoplasma pneumoniae,16 µg/mL
same,MIC Range,Mycoplasma pneumoniae,<0.001-32 ^ μg/mL
same,MIC,"Mycoplasma pneumoniae; most M. pneumoniae isolates, read-out: MICs of most isolates",< 0.001 µg/mL
same,MICs of two macrolide-resistant strains,Mycoplasma pneumoniae; two M. pneumoniae strains with mutations in 23S ribosomal RNA,32 µg/mL
same,MIC,"Mycoplasma pneumoniae; two M. pneumoniae strains with mutations in 23S ribosomal RNA, read-out: MICs of two macrolide-resistant strains",16 µg/mL
O=C(N[C@H](CO)[C@H](O)c1ccc([N+](=O)[O-])cc1)C(Cl)Cl [Chloramphenicol],MIC,Bacillus anthracis,4 µg/mL
same,MIC,Bacillus anthracis; Bacillus anthracis,8 µg/mL
same,MIC,Francisella tularensis,1 µg/mL
same,MIC,Francisella tularensis; Francisella tularensis,2 µg/mL
"C[C@@H]1CN2c3c(cc4c(N5C(=O)OC[C@@H]5C)noc4c3F)CC3(C(=O)NC(=O)NC3=O)[C@H]2[C@H](C)O1 [Compound 1, (2R,4S,4aS)-11-fluoro-2,4-dimethyl-8-[(4S)-4-methyl-2-oxo-1,3-oxazolidin-3-yl]-1,2,4,4a-tetrahydro-2′H,6H-spiro[1,4-oxazino[4,3-a][1,2]oxazolo[4,5-g]quinoline-5,5′-pyrimidine]-2′,4′,6′(1′H,3′H)-trione]",MIC,Brucella melitensis,16 µg/mL
same,MIC,Brucella melitensis; Brucella melitensis,8 µg/mL
same,MIC,Mycoplasma genitalium,0.5 µg/mL
same,MIC,Mycoplasma genitalium; ATCC33530,0.5 µg/mL
same,MIC,Mycoplasma genitalium; ATCC49895,1 µg/mL
same,MIC,Mycoplasma genitalium; ATCC49899,0.5 µg/mL
same,MIC90,Burkholderia mallei,32 µg/mL
same,MIC90 potency relative to azithromycin (fold more potent / lower MIC90),Ureaplasma species [1],4 fold
same,MIC range for isolates containing tetM,Ureaplasma species [1],0.5 to 2 µg/mL
same,"difference in MICs, levofloxacin-resistant versus levofloxacin-susceptible isolates",Ureaplasma species [1],no difference
same,MIC50,Ureaplasma species [1],0.5 µg/mL
same,MIC90,Ureaplasma species [1],1 µg/mL
same,MIC,Ureaplasma species [1],0.5 µg/mL
same,MIC,Brucella suis,1 µg/mL
same,MIC Range,Brucella suis,1 to 2 µg/mL
same,MIC,Brucella suis; Brucella suis,2 µg/mL
same,MIC50,Brucella suis; Brucella suis,1 µg/mL
same,MIC90,Brucella suis; Brucella suis,2 µg/mL
same,MIC,[3],64 µg/mL
same,MIC90,[3],>64 µg/mL
same,MIC,[3]; Burkholderia pseudomallei,32 µg/mL
same,MIC50,[3]; Burkholderia pseudomallei,32 µg/mL
same,MIC90,[3]; Burkholderia pseudomallei,64 µg/mL
same,MIC90,Bacillus anthracis,1 µg/mL
same,MIC Range,Bacillus anthracis,0.12 to 1 µg/mL and 0.12 to 4 µg/mL
same,MIC50,Bacillus anthracis; Bacillus anthracis,0.25 µg/mL
same,MIC90,Bacillus anthracis; Bacillus anthracis,0.5 µg/mL
same,MIC90 relative to levofloxacin (fold greater),Mycoplasma hominis,16 fold
same,MIC Range,Mycoplasma hominis,1 to 8 µg/mL
same,effect of presence of tetM on MICs,Mycoplasma hominis,not affected by the presence of tetM
same,MIC50,Mycoplasma hominis; Metamycoplasma hominis,2 µg/mL
same,MIC90,Mycoplasma hominis; Metamycoplasma hominis,4 µg/mL
same,MIC,"Mycoplasma hominis; Metamycoplasma hominis, read-out: maximum MIC value",8 µg/mL
same,MIC,Francisella tularensis,8 µg/mL
same,MIC Range,Francisella tularensis,8 to 16 µg/mL
same,MIC,Francisella tularensis; Francisella tularensis,16 µg/mL
same,MIC50,Francisella tularensis; Francisella tularensis,16 µg/mL
same,MIC90,Francisella tularensis; Francisella tularensis,16 µg/mL
same,MIC90 relative to doxycycline (fold higher),Mycoplasma pneumoniae; M. pneumoniae,4 fold
same,MIC,Mycoplasma pneumoniae; [4],0.5 µg/mL
same,MIC,Mycoplasma pneumoniae; [5],0.5 µg/mL
same,MIC,Mycoplasma pneumoniae; [6],0.5 µg/mL
same,MIC,Mycoplasma pneumoniae; [7],0.5 µg/mL
same,MIC,Mycoplasma pneumoniae; [8],0.5 µg/mL
same,MIC,Mycoplasma pneumoniae; [9],0.5 µg/mL
same,MIC,Mycoplasma pneumoniae; [10],1 µg/mL
same,MIC,Mycoplasma pneumoniae; [11],1 µg/mL
same,MIC,Mycoplasma pneumoniae; [12],0.5 µg/mL
same,MIC,Mycoplasma pneumoniae; [13],0.5 µg/mL
same,MIC,Mycoplasma pneumoniae; [14],0.5 µg/mL
same,MIC,Mycoplasma pneumoniae; [15],0.5 µg/mL
same,MIC,Mycoplasma pneumoniae; [16],0.5 µg/mL
same,MIC50,Mycoplasma pneumoniae,0.5 µg/mL
same,MIC90,Mycoplasma pneumoniae,1 µg/mL
same,in vitro potency against macrolide-resistant versus macrolide-susceptible isolates,Mycoplasma pneumoniae; two macrolide-resistant M. pneumoniae isolates,maintained in vitro potency
same,MIC50,Yersinia pestis,4 µg/mL
same,MIC50,Yersinia pestis; Yersinia pestis,2 µg/mL
C[C@H]1c2cccc(O)c2C(=O)C2=C(O)[C@]3(O)C(=O)C(C(N)=O)=C(O)[C@@H](N(C)C)[C@@H]3[C@@H](O)[C@@H]21 [Doxycycline],MIC,Brucella melitensis,0.125 µg/mL
same,MIC,Brucella melitensis; Brucella melitensis,0.25 µg/mL
same,MIC Range,Mycoplasma genitalium,0.25 to 1 µg/mL
same,MIC,Mycoplasma genitalium,1 µg/mL
same,MIC,Mycoplasma genitalium; ATCC33530,0.25 µg/mL
same,MIC,Mycoplasma genitalium; ATCC49895,0.25 µg/mL
same,MIC,Mycoplasma genitalium; ATCC49899,0.5 µg/mL
same,MIC90 activity relative to Compound 1 (fold more active),Ureaplasma species [1],8 fold
same,MIC Range,Ureaplasma species [1],0.016 to 8 µg/mL
same,MIC range for isolates containing tetM,Ureaplasma species [1],4 to 8 µg/mL
same,MIC50,Ureaplasma species [1],0.125 µg/mL
same,MIC90,Ureaplasma species [1],8 µg/mL
same,MIC,Ureaplasma species [1],8 µg/mL
same,MIC90,Ureaplasma species [1]; read-out: MIC90 for doxycycline-susceptible organisms,0.125 µg/mL
same,MIC,Brucella suis,0.125 µg/mL
same,MIC,Brucella suis; Brucella suis,0.063 µg/mL
same,MIC,Bacillus anthracis; Bacillus anthracis,≤ 0.031 µg/mL
same,MIC Range,Mycoplasma hominis,0.016 to 4 µg/mL
same,MICs for isolates with tetM,Mycoplasma hominis,4 µg/mL
same,MICs for isolates without tetM,Mycoplasma hominis,0.016 to 0.063 µg/mL
same,MIC50,Mycoplasma hominis; Metamycoplasma hominis,0.032 µg/mL
same,MIC90,Mycoplasma hominis; Metamycoplasma hominis,4 µg/mL
same,MIC,Mycoplasma pneumoniae; [4],0.5 µg/mL
same,MIC,Mycoplasma pneumoniae; [5],0.25 µg/mL
same,MIC,Mycoplasma pneumoniae; [6],0.25 µg/mL
same,MIC,Mycoplasma pneumoniae; [7],0.25 µg/mL
same,MIC,Mycoplasma pneumoniae; [8],0.25 µg/mL
same,MIC,Mycoplasma pneumoniae; [9],0.25 µg/mL
same,MIC,Mycoplasma pneumoniae; [10],0.25 µg/mL
same,MIC,Mycoplasma pneumoniae; [11],0.25 µg/mL
same,MIC,Mycoplasma pneumoniae; [12],0.25 µg/mL
same,MIC,Mycoplasma pneumoniae; [13],0.125 µg/mL
same,MIC,Mycoplasma pneumoniae; [14],0.5 µg/mL
same,MIC,Mycoplasma pneumoniae; [15],0.25 µg/mL
same,MIC,Mycoplasma pneumoniae; [16],0.25 µg/mL
same,MIC50,Mycoplasma pneumoniae,0.25 µg/mL
same,MIC90,Mycoplasma pneumoniae,0.25 µg/mL
same,MIC Range,Mycoplasma pneumoniae,0.125 to 0.5 µg/mL
same,MIC,Yersinia pestis,1 µg/mL
same,MIC,Yersinia pestis; Yersinia pestis,0.5 µg/mL
CC[C@H]1OC(=O)[C@H](C)C(=O)[C@H](C)[C@@H](O[C@@H]2O[C@H](C)C[C@H](N(C)C)[C@H]2O)[C@](C)(OC)C[C@@H](C)C(=O)[C@H](C)[C@H]2N(CCCCn3cnc(-c4cccnc4)c3)C(=O)O[C@]12C [Telithromycin],MIC Limits for Quality Control Strain,Ureaplasma species [2],0.125 to 1 µg/mL
CN(C)[C@@H]1C(O)=C(C(N)=O)C(=O)[C@@]2(O)C(O)=C3C(=O)c4c(O)cccc4[C@@](C)(O)[C@H]3C[C@@H]12 [Tetracycline],MICs for isolates with tetM,Mycoplasma hominis,32 µg/mL
